Test results as given in patent US20240124399A1, “NOVEL INDOLE DERIVATIVE, AND USE THEREOF FOR TREATING DISEASES RELATED TO ADVANCED GLYCATION END PRODUCTS” (METACEN THERAPEUTICS, priority 2021, published 2024).

Legend:
[1] = Methylglyoxal (MGO) trapping ability: free MGO concentration by HPLC; assay type: biochemical; conditions: for MGO concentration on day 1 (free MGO) / MGO concentration on day 7 (free MGO): compound 1:1 with MGO in PBS pH 7.4, 37° C.; for MGO concentration on day 1 (free MGO): day 1, HPLC; for MGO concentration on day 7 (free MGO): day 7, HPLC
Protocol: The objective of this experimental example was to confirm whether the compound of the present invention has the ability to trap methylglyoxal (MGO) by analyzing the concentration of free methylglyoxal (MGO) by high performance liquid chromatography (HPLC).
Specifically, a mixture was prepared by adding methylglyoxal (MGO) to phosphate buffered saline (PBS, Cat no. 10010023, pH 7.4). […]

[2] = Methylglyoxal (MGO) trapping ability: fluorescence intensity of reaction product; assay type: biochemical; conditions: compound 1.0 mM in MGO+PBS pH 7.4, 37° C., 1 day; ex 355 nm / em 460 nm; 10×10^3 or more = ability to trap MGO
Protocol: Methylglyoxal (MGO) is a main precursor of advanced glycation end products that cause complications due to diabetes mellitus. Successful trapping of methylglyoxal (MGO) can inhibit the production of advanced glycation end products. Therefore, the objective of this experimental example was to confirm whether the compound of the present invention has the ability to trap methylglyoxal (MGO), a precursor before the production of advanced glycation end products.
A mixture was prepared by adding methylglyoxal (MGO) to phosphate buffered saline (PBS, Cat no. 10010023, pH 7.4). The mixture (MGO+PBS) was treated with the compound of the above example at a concentration of 1.0 mM and then cultured at 37° C. for 1 day. The fluorescence intensity of the reaction product was measured at an excitation wavelength of 355 nm and an emission wavelength of 460 nm using a VICTOR™X3 multilabel plate reader.
The higher the fluorescence intensity measured from the reaction product, the higher the ability of the compound to trap methylglyoxal. In addition, in this experimental example, when the fluorescence intensity was 10×10^3 or more, it was determined that the compound had the ability to trap methylglyoxal.

| Compound | MGO concentration on day 1 (free MGO) [1] | MGO concentration on day 7 (free MGO) [1] | Fluorescence intensity on day 1 (×10^3) [2] | concentration of free methylglyoxal relative to the control group, day 1 ([1]; day 1 after incubation, control group PBS+MGO) | concentration of free methylglyoxal relative to the control group, day 7 ([1]; day 7 after incubation, control group PBS+MGO) |
| --- | --- | --- | --- | --- | --- |
| CCCC(=O)OC[C@@H](N)Cc1c[nH]c2ccc(OC(=O)CCC)cc12 [Compound 8, (S)-2-amino-3-(5-(butyryloxy)-1H-indol-3-yl)propyl butyrate] | 501.09 µM | 412.65 µM | 21.74 ± 0.50 ×10^3 | – | – |
| CCCC(=O)N[C@H](CO)Cc1c[nH]c2ccc(OC(=O)CCC)cc12 [Compound 9, (S)-3-(2-butyramido-3-hydroxypropyl)-1H-indol-5-yl butyrate] | 551.993 µM | 403.462 µM | 0.75 ± 0.30 ×10^3 | – | – |
| NCCCCNCCCNC(=O)OC[C@@H](N)Cc1c[nH]c2ccc(O)cc12 [Compound 10, (S)-2-amino-3-(5-hydroxy-1H-indol-3-yl)propyl (3-((4-aminobutyl)amino)propyl)carbamate] | 444.11 µM | 269.28 µM | 223.01 ± 3.74 ×10^3 | about 12% | about 38% |
